# Patent US20260007684A1, “AMIDE DERIVATIVES FOR INHIBITING NLRP3 AND USES THEREOF” (Ventus Therapeutics U.S., Inc., priority 2023, published 2026)
# Key:
# human NLRP3 [1] = target: T1, human NLRP3 (Homo sapiens (Human), UniProt Q96P20); assay: Human PBMC NLRP3 Assay (LPS priming, ATP stimulation, cytokine measurement); type: cell-based
# human NLRP3 [2] = target: T1, human NLRP3; assay: Scintillation Proximity (SPA) NLRP3 Assay: displacement of 3H-MCC950; type: binding; settings: for IC50: read-out: SPA IC50
# human NLRP3 [3] = target: T1, human NLRP3; assay: Human Whole Blood (hWB) NLRP3 Assay (LPS/ATP, IL-1β); type: cell-based
# [4] = human PBMC, LPS priming, ATP stimulation, read-out: PBMC IC50
# [5] = human whole blood, LPS/ATP, IL-1β, read-out: hWB IC50
# [6] = PBMC IC50, human PBMC, LPS priming, ATP stimulation
# [7] = hWB IC50, human whole blood, LPS/ATP, IL-1β
# T1 sequence (Q96P20 whole entry): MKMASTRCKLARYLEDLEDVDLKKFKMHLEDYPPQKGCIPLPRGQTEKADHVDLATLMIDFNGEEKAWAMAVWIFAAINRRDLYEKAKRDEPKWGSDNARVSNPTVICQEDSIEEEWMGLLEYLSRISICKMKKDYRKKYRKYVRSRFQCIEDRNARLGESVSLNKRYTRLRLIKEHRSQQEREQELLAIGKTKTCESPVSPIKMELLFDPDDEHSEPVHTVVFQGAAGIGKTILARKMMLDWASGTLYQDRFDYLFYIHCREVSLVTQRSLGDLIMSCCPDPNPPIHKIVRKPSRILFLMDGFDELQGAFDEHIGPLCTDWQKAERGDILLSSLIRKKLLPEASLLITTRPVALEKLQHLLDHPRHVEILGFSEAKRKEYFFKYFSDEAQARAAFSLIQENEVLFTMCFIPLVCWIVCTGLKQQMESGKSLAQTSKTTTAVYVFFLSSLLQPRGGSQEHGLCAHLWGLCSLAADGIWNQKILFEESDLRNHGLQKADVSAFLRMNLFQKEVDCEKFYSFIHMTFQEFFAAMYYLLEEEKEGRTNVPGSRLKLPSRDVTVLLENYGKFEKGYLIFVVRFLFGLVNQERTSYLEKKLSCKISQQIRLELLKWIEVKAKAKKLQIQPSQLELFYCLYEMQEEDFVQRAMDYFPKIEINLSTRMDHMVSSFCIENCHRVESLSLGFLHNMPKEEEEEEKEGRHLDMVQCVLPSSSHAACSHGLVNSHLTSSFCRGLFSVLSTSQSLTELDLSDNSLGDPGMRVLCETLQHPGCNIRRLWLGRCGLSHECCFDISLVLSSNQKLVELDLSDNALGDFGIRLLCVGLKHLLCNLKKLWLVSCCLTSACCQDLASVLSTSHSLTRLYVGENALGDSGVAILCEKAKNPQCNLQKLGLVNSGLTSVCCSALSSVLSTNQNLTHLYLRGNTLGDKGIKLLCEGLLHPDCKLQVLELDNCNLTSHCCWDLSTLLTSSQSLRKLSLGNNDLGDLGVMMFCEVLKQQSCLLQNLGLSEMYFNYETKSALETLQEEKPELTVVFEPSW
Structure (SMILES),IC50 (human NLRP3 [1]; [4]) [µM],IC50 (human NLRP3 [2]; displacement of 3H-MCC950) [µM],IC50 (human NLRP3 [3]; [5]) [µM],also measured
"CC(C)c1ccc(C2(C(=O)N[C@@H]3C[C@H](C)CCN(c4nnn[nH]4)C3)CC2)c(O)c1 (single isomer, unassigned) [27A*, 1-(2-hydroxy-4-isopropylphenyl)-N-(5-methyl-1-(1H-tetrazol-5-yl)azepan-3-yl)cyclopropane-1-carboxamide]",< 0.01,< 1,< 1,–
"C[C@@H]1CCN(c2nnn[nH]2)C[C@H](NC(=O)C2(c3ccc(C(F)(F)F)cc3)CC2)C1 (single isomer, unassigned) [61A*]",0.01 to 0.1,< 1,< 1,–
"C[C@@H]1CCN(c2nnn[nH]2)C[C@H](NC(=O)C2(c3ccc(OC(F)F)cc3)CC2)C1 (single isomer, unassigned) [58A*]",0.01 to 0.1,< 1,< 1,–
"O=C(N[C@@H]1CCC[C@@H]2CC[C@H]1N2c1nnn[nH]1)C1(c2ccc(C3CC3)cc2O)CC1 [93A*, N-((1R,2R,6R)-9-(1H-tetrazol-5-yl)-9-azabicyclo[4.2.1]nonan-2-yl)-1-(4-cyclopropyl-2-hydroxyphenyl)cyclopropane-1-carboxamide]",–,< 1,–,IC50 (human NLRP3 [1]; [6]): 0.01 to 0.1 µM; IC50 (human NLRP3 [3]; [7]): 2 to 3 µM
"Cc1ccc(C2(C(=O)N[C@@H]3C[C@@H](C)[C@@H]4CC[C@H]3N4c3nnn[nH]3)CC2)cc1 [87A*, N-((1R,2R,4R,5S)-4-methy1-8-(1H-tetrazol-5-yl)-8-azabicyclo[3.2.1]octan-2-yl)-1-(p-tolyl)cyclopropane-1-carboxamide]",–,< 1,1 to 2,IC50 (human NLRP3 [1]; [6]): 0.01 to 0.1 µM
"C[C@H]1CC[C@H](NC(=O)C2(c3ccc(C(F)(F)F)cc3O)CC2)CN(c2nnn[nH]2)C1 [89B*, 1-(2-hydroxy-4-(trifluoromethyl)phenyl)-N-((3S,6S)-6-methyl-1-(1H-tetrazol-5-yl)azepan-3-yl)cyclopropane-1-carboxamide]",0.01 to 0.1,< 1,> 3,–
"O=C(N[C@@H]1CC[C@H]2CC[C@@H]1N2c1nnn[nH]1)C1(c2ccc(Cl)c(F)c2O)CC1 [76C*, N-((1S,2R,5S)-8-(1H-tetrazol-5-yl)-8-azabicyclo[3.2.1]octan-2-yl)-1-(4-chloro-3-fluoro-2-hydroxyphenyl)cyclopropane-1-carboxamide]",0.1 to 0.5,< 1,1 to 2,–
"C[C@@H]1CCN(c2nnn[nH]2)C[C@H](NC(=O)C2(c3ccc(Cl)cc3O)CC2)C1 (single isomer, unassigned) [60A*]",< 0.01,< 1,< 1,–
"C[C@H]1C[C@@H](NC(=O)C2(c3ccc(C4CC4(F)F)cc3O)CC2)CN(c2nnn[nH]2)C1 (single isomer, unassigned) [94A*]",0.01 to 0.1,< 1,> 3,–
"Cc1ccc(C2(C(=O)N[C@@H]3C[C@H](C)CN(c4nnn[nH]4)C3)CC2)c(O)c1 [Compound 20A, 1-(2-hydroxy-4-methylphenyl)-N-((3R,5S)-5-methyl-1-(1H-tetrazol-5-yl)piperidin-3-yl)cyclopropane-1-carboxamide]",0.01 to 0.1,< 1,< 1,–
"C[C@H]1C[C@@H](NC(=O)C2(c3ccc(C4CC4)cc3O)CC2)CN(c2nnn[nH]2)C1 [Compound 23A, 1-(4-cyclopropyl-2-hydroxyphenyl)-N-((3R,5S)-5-methyl-1-(1H-tetrazol-5-yl)piperidin-3-yl)cyclopropane-1-carboxamide]",0.01 to 0.1,< 1,< 1,–
"C[C@@H]1CCN(c2nnn[nH]2)C[C@H](NC(=O)C2(c3ccc(Cl)nc3O)CC2)C1 (single isomer, unassigned) [100A*]",0.1 to 0.5,< 1,> 3,–
"C[C@@H]1C[C@@H](NC(=O)C2(c3ccc(C(F)(F)F)cc3F)CC2)[C@H]2CC[C@@H]1N2c1nnn[nH]1 [84A*, 1-(2-fluoro-4-(trifluoromethyl)phenyl)-N-((1R,2R,4R,5S)-4-methyl-8-(1H-tetrazol-5-yl)-8-azabicyclo[3.2.1]octan-2-yl)cyclopropane-1-carboxamide]",–,< 1,–,IC50 (human NLRP3 [1]; [6]): < 0.01 µM; IC50 (human NLRP3 [3]; [7]): < 1 µM
"C[C@@H]1C[C@@H](NC(=O)C2(c3ccc(C(F)F)cc3)CC2)[C@H]2CC[C@@H]1N2c1nnn[nH]1 [86A*, 1-(4-(difluoromethyl)phenyl)-N-((1R,2R,4R,5S)-4-methy1-8-(1H-tetrazol-5-yl)-8-azabicyclo[3.2.1]octan-2-yl)cyclopropane-1-carboxamide]",–,< 1,–,IC50 (human NLRP3 [1]; [6]): 0.01 to 0.1 µM; IC50 (human NLRP3 [3]; [7]): < 1 µM
"C[C@@H]1CCN(c2nnn[nH]2)C[C@H](NC(=O)C2(c3ccc(C(F)(F)F)c(F)c3O)CC2)C1 (single isomer, unassigned) [31A*, 1-(3-fluoro-2-hydroxy-4-(trifluoromethyl)phenyl)-N-(5-methyl-1-(1H-tetrazol-5-yl)azepan-3-yl)cyclopropane-1-carboxamide]",< 0.01,< 1,2 to 3,–
"C[C@@H]1C[C@@H](NC(=O)C2(c3ccc(Cl)cc3)CC2)[C@H]2CC[C@@H]1N2c1nnn[nH]1 [80A*, 1-(4-chlorophenyl)-N-((1R,2R,4R,5S)-4-methyl-8-(1H-tetrazol-5-yl)-8-azabicyclo[3.2.1]octan-2-yl)cyclopropane-1-carboxamide]",–,< 1,–,IC50 (human NLRP3 [1]; PBMC IC50): 0.01 µM; IC50 (human NLRP3 [1]; [6]): 0.01 to 0.1 µM; fold increase in potency as measured by PBMC IC50 (human NLRP3 [1]; relative to Compound 46A): 10 fold; IC50 (human NLRP3 [2]): 0.13 µM; fold increase in binding activity (SPA IC50) (human NLRP3 [2]; relative to Compound 46A): 6.6 fold; IC50 (human NLRP3 [3]; [7]): < 1 µM; IC50 (human NLRP3 [3]; read-out: hWB IC50): 0.84 µM; fold increase in potency as measured by hWB IC50 (human NLRP3 [3]; relative to Compound 46A): 3 fold
"C[C@@H]1C[C@@H](NC(=O)C2(c3ccc(C4CC4)c(F)c3O)CC2)[C@H]2CC[C@@H]1N2c1nnn[nH]1 [83A*, 1-(4-cyclopropy1-3-fluoro-2-hydroxyphenyl)-N-((1R,2R,4R,5S)-4-methy1-8-(1H-tetrazol-5-yl)-8-azabicyclo[3.2.1]octan-2-yl)cyclopropane-1-carboxamide]",–,< 1,–,IC50 (human NLRP3 [1]; [6]): < 0.01 µM; IC50 (human NLRP3 [3]; [7]): < 1 µM
"C[C@H]1C[C@@H](NC(=O)C2(c3ncc(C(F)(F)F)cc3O)CC2)CN(c2nnn[nH]2)C1 [Compound 25A, 1-(3-hydroxy-5-(trifluoromethyl)pyridin-2-yl)-N-((3R,5S)-5-methyl-1-(1H-tetrazol-5-yl)piperidin-3-yl)cyclopropane-1-carboxamide]",0.1 to 0.5,< 1,> 3,–
"C[C@@H]1CCN(c2nnn[nH]2)C[C@H](NC(=O)C2(c3cc(F)c(Cl)cc3O)CC2)C1 (single isomer, unassigned) [29A*, 1-(4-chloro-5-fluoro-2-hydroxyphenyl)-N-(5-methyl-1-(1H-tetrazol-5-yl)azepan-3-yl)cyclopropane-1-carboxamide]",0.01 to 0.1,< 1,1 to 2,–
"O=C(N[C@@H]1CCCCCN(c2nnn[nH]2)C1)C1(c2ccc(Cl)cc2)CC1 (single isomer, unassigned) [14A*, N-(1-(1H-tetrazol-5-yl)azocan-3-yl)-1-(4-chlorophenyl)cyclopropane-1-carboxamide]",0.01 to 0.1,< 1,1 to 2,–
"C[C@H]1C[C@@H](NC(=O)C2(c3c(O)cc(C4CC4)cc3OC(F)(F)F)CC2)CN(c2nnn[nH]2)C1 (single isomer, unassigned) [95A*]",0.01 to 0.1,< 1,> 3,–
"O=C(N[C@@H]1CC[C@H]2CC[C@@H]1N2c1nnn[nH]1)C1(c2ccc(OC(F)F)cc2O)CC1 [77C*, N-((1S,2R,5S)-8-(1H-tetrazol-5-yl)-8-azabicyclo[3.2.1]octan-2-yl)-1-(4-(difluoromethoxy)-2-hydroxyphenyl)cyclopropane-1-carboxamide]",–,< 1,–,IC50 (human NLRP3 [1]; [6]): 0.01 to 0.1 µM; IC50 (human NLRP3 [3]; [7]): < 1 µM
"C[C@@H]1CCN(c2nnn[nH]2)C[C@H](NC(=O)C2(c3cnc(Cl)cc3O)CC2)C1 (single isomer, unassigned) [99A*]",0.01 to 0.1,< 1,2 to 3,–
"C[C@@H]1CCN(c2nnn[nH]2)C[C@H](NC(=O)C2(c3ccc(Cl)cc3F)CC2)C1 (single isomer, unassigned) [56A*]",< 0.01,< 1,1 to 2,–
"O=C(N[C@@H]1CC[C@H]2CC[C@@H]1N2c1nnn[nH]1)C1(c2ccc(OC(F)(F)F)cc2O)CC1 [78C*, N-((1S,2R,5S)-8-(1H-tetrazol-5-yl)-8-azabicyclo[3.2.1]octan-2-yl)-1-(2-hydroxy-4-(trifluoromethoxy)phenyl)cyclopropane-1-carboxamide]",–,< 1,2 to 3,IC50 (human NLRP3 [1]; [6]): 0.01 to 0.1 µM
"C[C@@H]1CCN(c2nnn[nH]2)C[C@@H](NC(=O)C2(c3ccc(Cl)cc3O)CC2)C1 (single isomer, unassigned) [60B*]",0.01 to 0.1,< 1,< 1,–
"Cc1c(Cl)ccc(C2(C(=O)N[C@@H]3C[C@H](C)CCN(c4nnn[nH]4)C3)CC2)c1O (single isomer, unassigned) [21A*, 1-(4-chloro-2-hydroxy-3-methylphenyl)-N-(5-methyl-1-(1H-tetrazol-5-yl)azepan-3-yl)cyclopropane-1-carboxamide]",< 0.01,< 1,< 1,–
"C[C@@H]1CCN(c2nnn[nH]2)C[C@H](NC(=O)C2(c3ccc(Br)cc3)CC2)C1 (single isomer, unassigned) [59A*]",< 0.01,< 1,< 1,–
"Cc1ccc(C2(C(=O)N[C@@H]3C[C@H](C)CCN(c4nnn[nH]4)C3)CC2)c(O)c1F (single isomer, unassigned) [74A*]",< 0.01,< 1,< 1,–
